The source made the active and inactive calls. No cut-off for these calls is given here.
What was measured:
Hippocampus = test: Neuroprotective activity against glutamate-induced neuronal cell death in Sprague-Dawley rat brain hippocampal slices assessed as cell viability at 10 uM incubated 4 hrs by MTT assay relative to control; assay type: functional; details: read-out: Activity
[1] = Neuroprotective activity against veratradine-induced neuronal cell death in bovine chromaffin cells assessed as cell viability at 10 uM after 24 hrs by LDH release assay relative to control; assay type: functional; details: Bos taurus, read-out: Activity
SH-SY5Y [2] = test: Neuroprotective activity against potassium ion-induced cytotoxicity in human SH-SY5Y cells assessed as cell viability at 3 uM pretreated for 24 hrs measured 24 hrs post potassium ion challenge by MTT assay relative to control; assay type: functional; details: read-out: Activity
SH-SY5Y [3] = test: Neuroprotective activity against rotenone/oligomycin A-induced oxidative stress in human SH-SY5Y cells assessed as cell viability at 0.3 uM pretreated for 24 hrs measured 24 hrs post rotenone/oligomycin challenge by MTT assay relative to control; assay type: functional; details: read-out: Activity
[4] = molecular target: T1, Mitochondrial sodium/calcium exchanger protein (Homo sapiens, UniProt Q6J4K2); test: Inhibition of mitochondrial sodium/calcium exchanger (unknown origin)
T1 sequence (Q6J4K2 whole entry): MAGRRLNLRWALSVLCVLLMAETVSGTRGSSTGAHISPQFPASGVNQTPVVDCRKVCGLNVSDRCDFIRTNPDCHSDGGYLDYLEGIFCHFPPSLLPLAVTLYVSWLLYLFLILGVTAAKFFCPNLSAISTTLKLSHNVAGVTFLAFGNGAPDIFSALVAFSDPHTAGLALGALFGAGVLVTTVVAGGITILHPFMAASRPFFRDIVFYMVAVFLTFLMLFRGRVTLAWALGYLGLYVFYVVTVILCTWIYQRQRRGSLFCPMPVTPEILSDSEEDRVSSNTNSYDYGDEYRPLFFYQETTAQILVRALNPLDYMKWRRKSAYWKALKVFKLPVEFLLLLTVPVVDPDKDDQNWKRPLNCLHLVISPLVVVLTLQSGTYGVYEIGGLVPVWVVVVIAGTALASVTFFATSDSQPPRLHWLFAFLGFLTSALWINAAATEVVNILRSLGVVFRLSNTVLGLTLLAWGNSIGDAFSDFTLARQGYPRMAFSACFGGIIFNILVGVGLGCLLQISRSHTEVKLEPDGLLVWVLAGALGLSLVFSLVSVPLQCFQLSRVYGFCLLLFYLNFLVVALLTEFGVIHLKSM

[5] = molecular target: T2, Mitochondrial sodium/calcium exchanger protein (Homo sapiens) (UniProt Q6J4K2); test: Inhibition of mitochondrial sodium/calcium exchanger in human HeLa cells assessed as reduction in decay rate of histamine-induced mitochondrial calcium at 3 uM after 36 to 48 hrs by aequorin staining based bioluminescence assay; assay type: cell-based
T2 sequence (whole entry): T1 sequence (Q6J4K2 whole entry)

Bos taurus [6] = species: Bos taurus; test: Inhibition of voltage gated calcium channel in bovine chromaffin cells assessed as blockade of depolarizing pulse-induced whole cell inward calcium currents by perforated patch clamp method; assay type: cell-based
[7] = molecular target: T2, Mitochondrial sodium/calcium exchanger protein (Homo sapiens); test: Inhibition of mitochondrial sodium/calcium exchanger in human HeLa cells assessed as reduction in clearance of histamine-induced mitochondrial calcium at 3 uM after 36 to 48 hrs by aequorin staining based bioluminescence assay; assay type: cell-based
[8] = molecular target: T2, Mitochondrial sodium/calcium exchanger protein (Homo sapiens); test: Inhibition of mitochondrial sodium/calcium exchanger in human HeLa cells assessed as increase in AUC of histamine-induced mitochondrial calcium at 3 uM after 36 to 48 hrs by aequorin staining based bioluminescence assay; assay type: cell-based
[9] = molecular target: T2, Mitochondrial sodium/calcium exchanger protein (Homo sapiens); test: Inhibition of mitochondrial sodium/calcium exchanger in human HeLa cells assessed as increase in maximal peak of histamine-induced mitochondrial calcium at 3 uM after 36 to 48 hrs by aequorin staining based bioluminescence assay; assay type: cell-based
HeLa = test: Cytotoxicity against human HeLa cells assessed as reduction in cell viability at 0.3 to 30 uM after 24 hrs by MTT assay; assay type: cell-based
SH-SY5Y [10] = test: Cytotoxicity in human SH-SY5Y cells assessed as ROS generation after 24 hrs by H2DCFDA/Hoechst dye based fluorescence assay; assay type: cell-based
Bos taurus [11] = species: Bos taurus; test: Inhibition of sodium channel in bovine chromaffin cells assessed as blockade of inward sodium currents by perforated patch clamp method; assay type: cell-based

SMILES: CC12CC3CC(C)(C1)CC(N)(C3)C2 [MEMANTINE]
- viability at 10 µM (Hippocampus): 43%

SMILES: O=C1CSC(c2ccccc2Cl)c2cc(Cl)cnc2N1 (stereo not given)
- viability at 10 µM [1]: 22%
- viability at 3 µM (SH-SY5Y [2]): 33%
- viability at 10 µM (Hippocampus): 27%
- viability at 0.3 µM (SH-SY5Y [3]): 11%

SMILES: COc1ccc(C2SCC(=O)Nc3ncc(Cl)cc32)cc1 (stereo not given)
- viability at 10 µM [1]: 27%
- viability at 3 µM (SH-SY5Y [2]): 10%
- viability at 10 µM (Hippocampus): 34%
- viability at 0.3 µM (SH-SY5Y [3]): 23%

SMILES: COc1ccc2[nH]cc(CCNC(C)=O)c2c1 [MELATONIN]
- viability at 0.3 µM (SH-SY5Y [3]): 27%

SMILES: O=C1CSC(c2ccccc2Cl)c2cc(Cl)ccc2N1 (stereo not given)
- IC50 [4]: 1600 nM
- inhibition [5]: Active
- inhibition (Bos taurus [6]; dose or concentration not given here): 37%
- viability at 10 µM [1]: 76%
- viability at 3 µM (SH-SY5Y [2]): 36%
- viability at 10 µM (Hippocampus): 37%
- viability at 0.3 µM (SH-SY5Y [3]): 18%

SMILES: COc1ccccc1C1SCC(=O)Nc2ncc(Cl)cc21 (stereo not given)
- viability at 10 µM [1]: 27%
- viability at 3 µM (SH-SY5Y [2]): 17%
- viability at 10 µM (Hippocampus): 13%
- viability at 0.3 µM (SH-SY5Y [3]): 19%

SMILES: O=C1CSC(c2ccccc2C(F)(F)F)c2cc(Cl)cnc2N1 (stereo not given)
- viability at 10 µM [1]: 17%
- viability at 3 µM (SH-SY5Y [2]): 19%
- viability at 10 µM (Hippocampus): 42%
- viability at 0.3 µM (SH-SY5Y [3]): 18%

SMILES: COC(=O)C1=C(C)NC(C)=C(C(=O)OC)C1c1ccccc1[N+](=O)[O-] [NIFEDIPINE]
- viability at 3 µM (SH-SY5Y [2]): 24%

SMILES: Cc1ccccc1C1SCC(=O)Nc2ncc(Cl)cc21 (stereo not given)
- viability at 10 µM [1]: 14%
- viability at 3 µM (SH-SY5Y [2]): 20%
- viability at 10 µM (Hippocampus): 27%
- viability at 0.3 µM (SH-SY5Y [3]): 21%

SMILES: O=C1CSC(c2ccccc2Br)c2cc(Cl)cnc2N1 (stereo not given)
- inhibition [5]: Active
- inhibition [7]: inactive
- viability at 10 µM [1]: 23%
- viability at 3 µM (SH-SY5Y [2]): 30%
- viability at 10 µM (Hippocampus): 28%
- viability at 0.3 µM (SH-SY5Y [3]): 21%

SMILES: CC(C)c1ccccc1C1SCC(=O)Nc2ncc(Cl)cc21 (stereo not given)
- viability at 10 µM [1]: 49%
- viability at 3 µM (SH-SY5Y [2]): 28%
- viability at 10 µM (Hippocampus): 33%
- viability at 0.3 µM (SH-SY5Y [3]): 19%

SMILES: O=C1CSC(c2ccc(F)cc2)c2cc(Cl)cnc2N1 (stereo not given)
- inhibition [8]: Active
- inhibition [9]: Active
- inhibition [5]: Active
- Activity (HeLa): Non-toxic
- Activity (SH-SY5Y [10]): Non-toxic
- inhibition (Bos taurus [6]): inactive
- inhibition (Bos taurus [11]): inactive
- viability at 10 µM [1]: 22%
- viability at 3 µM (SH-SY5Y [2]): 27%
- viability at 10 µM (Hippocampus): 20%
- viability at 0.3 µM (SH-SY5Y [3]): 24%

SMILES: CCOc1ccccc1C1SCC(=O)Nc2ncc(Cl)cc21 (stereo not given)
- viability at 10 µM [1]: 17%
- viability at 3 µM (SH-SY5Y [2]): 28%
- viability at 10 µM (Hippocampus): 11%
- viability at 0.3 µM (SH-SY5Y [3]): 26%

SMILES: O=C1CSC(c2ccccc2)c2cc(Cl)cnc2N1 (stereo not given)
- inhibition [5]: Active
- viability at 10 µM [1]: 6%
- viability at 3 µM (SH-SY5Y [2]): 21%
- viability at 10 µM (Hippocampus): 33%
- viability at 0.3 µM (SH-SY5Y [3]): 30%
